Where two headings read alike, the source gives them in different places.

Experiment [1] deals with SUR1-T1397*/Kir6.2. In words: Current inhibition in inside-out patches in the absence of Mg2+. It counts as biochemical, Homo sapiens. The protocol:
(§1) Currents were recorded from inside-out membrane patches excised from transfected HEK-293T cells. Pipettes were pulled to a resistance of 1–5 MΩ and filled with an extracellular solution containing (in mM) 140 KCl, 1.2 MgCl2, 2.6 CaCl2, and 10 HEPES, pH 7.4 or 140 KCl, 1 EGTA, 10 HEPES, pH 7.3. The intracellular (bath) solutions contained either (in mM) 107 KCl, 2 MgCl2, 1 CaCl2, 10 EGTA, and 10 HEPES, pH 7.2 for experiments showing nucleotide-dependent activation or 140 KCl, 1 EDTA, 1 EGTA, 10 HEPES pH 7.3 for experiments showing nucleotide-dependent inhibition. Nucleotides were added as indicated. Patches were perfused with an 8-channel µFlow perfusion system. Data were acquired at a holding potential of −60 mV using an Axopatch 200B amplifier and Digidata 1322A digitizer with pClamp 9.0 software (Molecular Devices). Currents were digitized at 10 kHz and low-pass filtered at 1 kHz. KATP channels run down in excised patches (reviewed by Proks et al.) ([Proks et al., 2016]). For inhibitory concentration-response relationships, rundown was corrected by alternating test nucleotide solutions with nucleotide-free (control) solutions and expressing the test currents as a fraction of the average of the control currents before and after the test solution. […]

For experiment [2], the target named is T1, SUR1-Y1353*,K2A/Kir6.2 (Homo sapiens, UniProt Q09428, K1384A/Y1353X).
T1 construct: the signals we measured (fluorescence) were derived solely from full-length (i.e. ANAP-labeled) channels; expressed in transfected cells; host or cells: HEK-293T
Briefly: FRET binding of TNP-nucleotides to ANAP-labeled KATP in unroofed membrane fragments. Particulars: absence of Mg2+. How it is done: (§2) Unroofed membranes were prepared using a modification of a protocol from the Heuser laboratory ([Heuser, 2000]; [Usukura et al., 2012]; [Zagotta et al., 2016]). Briefly, a coverslip containing adherent cells was removed from the cell culture medium and a small piece (0.5–1 cm) was broken off using jewelers forceps (#5) and washed in phosphate buffered saline (PBS, Thermo Fisher Scientific) diluted 1:3 in deionized water. Cells were exposed 3 × 10 s to a solution of 0.01% poly-L-lysine (Sigma) with intervening washes in diluted PBS to adhere them more firmly to the coverslips. The coverslip fragment was then placed in a 30 mm culture dish filled with 2–3 mL of 1/3X PBS and sonicated very briefly (~100 ms) using a probe sonicator (Vibra-cell; Newtown, CT), leaving behind adherent plasma membrane and sometimes additional cellular material. The unroofed fragments in our experiments were sometimes visible under bright-field illumination, a potential result of our modified ‘unroofing’ procedure. Morphologically, such cell fragments resemble the ‘partially unroofed’ cells identified by Usukura et al. ([Usukura et al., 2012]) Cells cultured on poly-D-lysine coated FluoroDishes were unroofed in diluted PBS with no additional poly-L-lysine treatment. This procedure yielded a higher percentage of completely unroofed plasma membranes (i.e. nearly invisible with brightfield illumination).
(§3) Unroofed membrane fragments were imaged directly on FluoroDishes (FD35-PDL-100, World Precision Instruments) or on broken coverslips placed in a FluoroDish (FD3510, World Precision instruments) using a Nikon TE2000-U microscope equipped with a 40x (S Fluor, 1.3 NA; Nikon, Kingston Upon Thames, UK) or 100x (Apo TIRF, 1.49 NA, Nikon) oil-immersion objective and low-fluorescence immersion oil (MOIL-30, Olympus; Southend-on-Sea, UK) or a 60x water immersion objective (Plan Apo VC, 1.20 NA, Nikon). ANAP was excited using a ThorLabs LED source (LED4D067) at 385 nm connected to the microscope using a liquid light guide in series with a 390/18 nm band-pass filter (MF390-18, ThorLabs; Newton, NJ) and MD416 dichroic (ThorLabs). For imaging, emitted light was filtered through a 479/40 nm band-pass filter (MF479-40, ThorLabs). GFP-tagged constructs were imaged using a similar setup with excitation at 490 nm, a 480/40 band-pass excitation filter (Chroma; Bellows Falls, VT), a DM505 dichroic mirror (Chroma), and 510 nm long-pass emission filter (Chroma). All images were acquired using a PIXIS 400B CCD camera (Princeton Instruments; Trenton, NJ). For spectroscopy, ANAP was excited as above, but emitted light was passed through a 400 nm long-pass filter (FEL0400, ThorLabs) and directed through the slit of an Isoplane 160 spectrometer (300 g/mm grating; Princeton Instruments) in series with the camera. The acquired images retained spatial information in the y-dimension, with the x-dimension replaced by wavelength (Figure 1—figure supplement 1a). Exposure times were typically 100 ms for brightfield images, 1–10 s for steady-state spectra and 1–5 s for time-course experiments.
(§4) To prevent accumulation of fluorescent nucleotides in the bath, FluoroDishes were perfused with either (in mM) 140 KCl, 20 NaCl, 10 MgCl2, 10 HEPES pH 7.2 with NaOH or 140 KCl, 20 NaCl, 1 EDTA, 10 HEPES pH 7.2 with NaOH using a peristaltic pump (Ismatec; Wertheim, Germany). Unroofed membranes were directly perfused with nucleotides using an 8-channel µFlow perfusion system (ALA Scientific Instruments; Farmingdale, NY). Solution change with the µFlow was rapid (τ = 0.73 s±0.02 s, n=5) as measured from single exponential fits to wash-out of 50 µM tetramethylrhodamine-5-maleimide (TMRM) after switching to a solution with no TMRM. TMRM was excited with a 565 nm LED with a D540/25X band-pass filter (Chroma) and DM565 dichroic mirror (Chroma). Emitted light was collected through a D605/55M band-pass filter (Chroma). […]

For experiment [3], the target named is SUR1-Y1353*/Kir6.2 (NBS2 of SUR1) (Homo sapiens, UniProt Q09428, Y1353X). Described as above. The protocol:
as §2, §3, §4

For experiment [4], the target named is T2, SUR1-T1397*/Kir6.2 (Homo sapiens, UniProt Q09428, T1397X).
T2 construct: confirmed that >95% of SUR1-T1397* was full length; expressed in transfected cells; host or cells: HEK-293T
The experiment is described as above. Particulars: absence of Mg2+. How it is done:
as §2, §3, §4

The subject of the next experiment is SUR1-Y1353*/Kir6.2. In words: Nucleotide wash-out (dissociation) time course. It counts as binding, Homo sapiens. Particulars: for t0.5 (time to 50% dissociation): no drug, mean ± SD of individual fits; for reduction of off-rate in the presence of Mg2+ (fold / factor): with vs without Mg2+; for τ of MgTNP-ADP dissociation in the presence of drug / τ of MgTNP-ATP dissociation in the presence of drug: 500 µM tolbutamide or 340 µM diazoxide.

The target of a further experiment is T3, SUR1/Kir6.2-G334D (Homo sapiens, UniProt Q09428).
T3 construct: expressed in transfected cells; host or cells: HEK-293T
In words: Current activation in inside-out patches. It counts as biochemical. How it is done:
as §1

In experiment [5] the target is T1, SUR1-Y1353*,K2A/Kir6.2. Briefly: Nucleotide wash-out (dissociation) time course. It counts as binding. As to conditions: absence of Mg2+.
From the text: as §4, with “[…] Solution exchange” for “Emitted light”, “also monitored during experiments with TNP-nucleotides by examining the emission spectrum of” for “collected through”, “background region in each image.” for “D605/55M band-pass filter (Chroma).”
To measure the time course of nucleotide unbinding, the fluorescence at the TNP-nucleotide peak (usually around 560 nm) was plotted as a function of time after exchanging to a zero-nucleotide solution, as following the time course of the rise in ANAP fluorescence was complicated by photobleaching. After complete wash out of nucleotides, the fluorescence at 560 nm was non-zero, as the shoulder of the ANAP emission spectrum extends into the range of wavelengths at which TNP-nucleotides emit. […]

[6] abbreviates: mean ± SEM of fits to individual experiments.
Setting [7] is: absence of Mg2+ (1 mM EDTA), mean ± SEM of fits to individual experiments.
Setting [8] is: absence of Mg2+, fit to combined data.

Turning to `Nc1ncnc2c1ncn2[C@@H]1O[C@H](COP(=O)(O)OP(=O)(O)OP(=O)(O)O)[C@@H](O)[C@H]1O` [ATP], the IC50 with SUR1-T1397*/Kir6.2 [1] (Equation 4 fit to combined data) stood at 49.2 µM; with SUR1-T1397*/Kir6.2 [1] (mean ± SEM of fits of Equation 4 to individual experiments) it was 53.9 ± 9.4 µM.

Regarding `Nc1ncnc2c1ncn2[C@@H]1O[C@H](COP(=O)(O)OP(=O)(O)OP(=O)(O)O)[C@H]2OC3(O[C@H]21)C([N+](=O)[O-])=CC(=[N+]([O-])[O-])C=C3[N+](=O)[O-]` (some centres unmarked) [TNP-ATP, trinitrophenyl-ATP], the Emax on SUR1-Y1353*,K2A/Kir6.2 [2] (fit to combined data) stood at 0.87 ± 0.03; at SUR1-Y1353*,K2A/Kir6.2 [2] (setting [6]) it was 0.90 ± 0.03; in experiment [3] (setting [7]), 0.83 ± 0.03; in experiment [3] (setting [8]) it was 0.84 ± 0.04; on SUR1-T1397*/Kir6.2 [4] (fit to combined data), 0.94 ± 0.02; on SUR1-T1397*/Kir6.2 [4] (setting [6]) it was 0.94 ± 0.01. Moreover, the h on SUR1-Y1353*,K2A/Kir6.2 [2] (fit to combined data) was found to be 0.9 ± 0.2; on SUR1-Y1353*,K2A/Kir6.2 [2] (setting [6]), 0.98 ± 0.13; in experiment [3] (setting [7]), 0.88 ± 0.06; in experiment [3] (setting [8]) it was 0.8 ± 0.1; on SUR1-T1397*/Kir6.2 [4] (fit to combined data), 0.8 ± 0.1; on SUR1-T1397*/Kir6.2 [4] (setting [6]), 0.83 ± 0.09. Besides, the EC50 in experiment [3] (EC50, absence of Mg2+ (1 mM EDTA), mean ± SEM of fits to individual experiments) was 12.8 ± 5.6 µM; in experiment [3] (EC50, absence of Mg2+, fit to combined data) it was 8.5 µM; at SUR1-T1397*/Kir6.2 [4] (fit to combined data), 4.8 µM; on SUR1-T1397*/Kir6.2 [4] (setting [6]), 4.7 ± 0.8 µM. In the experiment on SUR1-Y1353*/Kir6.2 (absence of Mg2+), the “t0.5 (time to 50% dissociation)” value was found to be 4.8 ± 1.5 s. Further, the “A1 of dissociation (bi-exponential amplitude)” value in the experiment on SUR1-Y1353*/Kir6.2 (setting [8]) was 0.65 ± 0.06. Also, the “A2 of dissociation (bi-exponential amplitude)” value in the experiment on SUR1-Y1353*/Kir6.2 (setting [8]) is 0.35 ± 0.06. In the experiment on SUR1-Y1353*/Kir6.2 (setting [8]), the “τ1 of dissociation (bi-exponential)” value came out at 4.5 s. The “τ2 of dissociation (bi-exponential)” value in the experiment with SUR1-Y1353*/Kir6.2 (setting [8]) was found to be 28.2 s. Also, the “reduction of off-rate in the presence of Mg2+ (fold / factor)” value with SUR1-Y1353*/Kir6.2 turned out to be 2.2.

In the case of `CC1=NS(=O)(=O)c2cc(Cl)ccc2N1` [diazoxide], in the experiment with SUR1-Y1353*/Kir6.2 (fit to combined data), the “τ of MgTNP-ADP dissociation in the presence of drug” value is listed as 52.6 s and the “τ of MgTNP-ATP dissociation in the presence of drug” value is on record as 60.5 s.

For `CCCCNC(=O)NS(=O)(=O)c1ccc(C)cc1` [tolbutamide], at SUR1/Kir6.2-G334D, the effect on currents entry is “inhibited”. In the experiment on SUR1-Y1353*/Kir6.2 (fit to combined data), the “τ of MgTNP-ADP dissociation in the presence of drug” value was 6.4 s and the “τ of MgTNP-ATP dissociation in the presence of drug” value amounted to 6.3 s.

For the molecule trinitrophenyl-ADP [TNP-ADP], the EC50 on SUR1-Y1353*,K2A/Kir6.2 [2] (fit to combined data) turned out to be 4.4 µM; at SUR1-Y1353*,K2A/Kir6.2 [2] (setting [6]), 5 ± 1 µM; in experiment [3] (absence of Mg2+ (1 mM EDTA), mean ± SEM of fits to individual experiments, read-out: EC50), 6.8 ± 1.3 µM; in experiment [3] (absence of Mg2+, fit to combined data, read-out: EC50), 6.1 µM; on SUR1-T1397*/Kir6.2 [4] (fit to combined data) it was 5.6 µM; on SUR1-T1397*/Kir6.2 [4] (setting [6]) it was 6.3 ± 2.3 µM. Moreover, the Emax is 0.91 ± 0.02 at SUR1-Y1353*,K2A/Kir6.2 [2] (fit to combined data); 0.92 ± 0.02 at SUR1-Y1353*,K2A/Kir6.2 [2] (setting [6]); 0.95 ± 0.01 in experiment [3] (setting [7]); 0.95 ± 0.02 in experiment [3] (setting [8]); 0.98 ± 0.05 at SUR1-T1397*/Kir6.2 [4] (fit to combined data); 0.98 ± 0.02 on SUR1-T1397*/Kir6.2 [4] (setting [6]). For the same molecule, the h on SUR1-Y1353*,K2A/Kir6.2 [2] (fit to combined data) came to 0.9 ± 0.1; at SUR1-Y1353*,K2A/Kir6.2 [2] (setting [6]) it was 0.88 ± 0.05; in experiment [3] (setting [7]) it was 0.79 ± 0.04; in experiment [3] (setting [8]) it was 0.8 ± 0.1; on SUR1-T1397*/Kir6.2 [4] (fit to combined data), 0.7 ± 0.1; on SUR1-T1397*/Kir6.2 [4] (setting [6]), 0.84 ± 0.13. In addition, the “effect of increasing concentration to 10 mM on amount of quenching” value in experiment [3] (absence of Mg2+, n = 3, data not shown) is on record as “did not significantly change”. Further, the “τ of dissociation (single exponential)” value at SUR1-Y1353*,K2A/Kir6.2 [5] (fit to combined data) is listed as 5.4 s; with SUR1-Y1353*/Kir6.2 (setting [8]) it was 4.2 s. In addition, the “t0.5 (time to 50% dissociation)” value at SUR1-Y1353*,K2A/Kir6.2 [5] (mean ± SD) stood at 3.8 ± 1.0 s; in the experiment with SUR1-Y1353*/Kir6.2 (absence of Mg2+), 2.9 ± 0.5 s. In addition, the “reduction of off-rate in the presence of Mg2+ (fold / factor)” value in the experiment with SUR1-Y1353*/Kir6.2 is reported as ~ 5.

The values are drawn from paper PMC6400584, “Activation mechanism of ATP-sensitive K^+ channels explored with real-time nucleotide binding” (eLife, 2019).
